Laboratory results published in patent US10829496B2, “Thienopyridines and benzothiophenes useful as IRAK4 inhibitors” (BRISTOL-MYERS SQUIBB COMPANY, priority 2017, dated 2020).

Tests used:
[1] = system: IL-6 levels in human whole blood stimulated with a TLR2 agonist; assay: IRAK4 Whole Blood Assay (TLR2 agonist lipoteichoic acid-stimulated IL-6); format: cell-based; conditions: 10 μg/mL lipoteichoic acid, 5 hours, IL-6 readout
Description: Human whole blood containing the anti-coagulant ACD-A was plated in 384-well plate (25 μL/well) and incubated with compounds for 60 minutes at 37° C. in a 5% CO2 incubator. The blood was stimulated with a TLR2 agonist, 10 μg/mL final concentration of lipoteichoic acid (Invivogen, San Diego, Calif.) in 25 μL RPMI (Gibco) for 5 hours in a 5% CO2 incubator. At the end of the incubation, plates were centrifuged at 2300 rpm for 5 minutes. Supernatants were harvested and analyzed for IL-6 levels by Flow Cytometry beads assay (BD Biosciences, San Jose, Calif.).

[2] = Caco-2 Permeability Assay; format: in vitro ADME; conditions: human, 3 μM compound, 2 hours at 37° C., direction not given
Description: Caco-2 Permeability Assay
Thirteen to 27 days prior to assay, Caco-2 cells were seeded onto collagen-coated polycarbonate filter membranes in 24-well transwell plates at a density of 1.45×10^5 cells/cm^2, approximately 4.8×10^4 cells per well. The cells were grown in a culture medium consisting of DMEM supplemented with 10% fetal bovine serum, 10 mM HEPES, 1% nonessential amino acids, 2 mM L-glutamine, 100 U/mL penicillin-G, and 100 μg/mL streptomycin. The culture medium was replaced every 3 days and the cells were maintained at 37° C. in a 95% relative humidity and 5% CO2 atmosphere. The cells were evaluated for tight junction formation just prior to assay. The test compound was solubilized to 10 mM in 100% DMSO and diluted to 3 μM in assay buffer. Permeability studies were initiated by adding 200 μL assay buffer plus/minus compound to the apical transwell compartment and 600 μL assay buffer plus/minus compound to the basolateral compartment of the 24-well transwell low-binding cluster plate. For apical-to-basolateral (A to B) permeability (absorptive direction), buffer containing compound was placed in the apical compartment (donorwells), while buffer alone was placed in the corresponding basolateral compartments (receiverwells). For basolateral-to-apical (B to A) permeability (secretive direction), buffer containing compound was placed in the basolateral compartment (donor wells), while buffer alone was placed in the corresponding apical compartments (receiver wells). Transwells were then incubated for 2 hours at 37° C. in a 95% relative humidity and 5% CO2 atmosphere with gentle agitation. Following incubation, 100 μL was removed from each apical and basolateral compartment and transferred to 96-well low binding plates that had been previously loaded with 100 μL/well of acetonitrile containing 250 nM propranolol, 250 nM diclofenac, and 500 nM tolbutamide as internal standards. The samples were subsequently analyzed by LC-MS/MS to determine concentrations of compound.

IRAK4 = IRAK4 (Homo sapiens (Human), UniProt Q9NWZ3); assay: IRAK4 Inhibition Assay; format: biochemical; conditions: ATP 500 μM; IRAK4 0.6 nM; 60 min at room temperature
Description: The assays were performed in U-bottom 384-well plates. The final assay volume was 30 μL prepared from 15 μL additions of enzyme and substrates (fluoresceinated peptide and ATP) and test compounds in assay buffer (20 mM HEPES pH 7.2, 10 mM MgCl2, 0.015% Brij 35 and 4 mM DTT). The reaction was initiated by the combination of IRAK4 with substrates and test compounds. The reaction mixture was incubated at room temperature for 60 min. and terminated by adding 45 μL of 35 mM EDTA to each sample. The reaction mixture was analyzed on the Caliper LABCHIP® 3000 (Caliper, Hopkinton, Mass.) by electrophoretic separation of the fluorescent substrate and phosphorylated product. Inhibition data were calculated by comparison to no enzyme control reactions for 100% inhibition and vehicle-only reactions for 0% inhibition. The final concentrations of reagents in the assays are ATP, 500 μM; FL-IPTSPITTTYFFFKKK peptide 1.5 μM; IRAK4, 0.6 nM; and DMSO, 1.6%.

Chain of IRAK4 (Q9NWZ3 whole entry): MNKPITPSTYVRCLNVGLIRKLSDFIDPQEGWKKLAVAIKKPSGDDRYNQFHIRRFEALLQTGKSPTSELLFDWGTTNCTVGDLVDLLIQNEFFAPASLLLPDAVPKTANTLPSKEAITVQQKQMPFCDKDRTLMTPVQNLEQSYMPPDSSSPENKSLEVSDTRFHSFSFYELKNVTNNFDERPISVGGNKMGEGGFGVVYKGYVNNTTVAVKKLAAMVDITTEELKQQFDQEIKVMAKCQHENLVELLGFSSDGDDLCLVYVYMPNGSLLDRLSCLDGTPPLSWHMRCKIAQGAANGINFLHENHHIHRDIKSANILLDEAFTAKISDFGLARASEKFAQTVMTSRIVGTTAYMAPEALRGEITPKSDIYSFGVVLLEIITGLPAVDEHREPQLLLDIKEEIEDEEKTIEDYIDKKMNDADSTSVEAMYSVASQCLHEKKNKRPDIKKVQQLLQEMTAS

EC50 [1]: 736 nM
Papp at 2 h, 3 µM [2]: 5.8 ×10⁻⁶ cm/s
IC50 (IRAK4): 13.3 nM
Compound: COc1nc2c(OC[C@H]3NC(=O)[C@@H](F)[C@H]3C)csc2cc1C(N)=O [Example 28, 3-(((2S,3S,4S)-4-fluoro-3-methyl-5-oxopyrrolidin-2-yl)methoxy)-5-methoxythieno[3,2-b]pyridine-6-carboxamide]
